The source of these data is patent publication US5480869A, “Anti-inflammatory peptide analogs and treatment to inhibit vascular leakage in injured tissues” (The Regents of the University of California, priority 1993, dated 1996).

The structures appear in SMILES notation. Where a SMILES comes first, the peptide text is derived from it.

The subject of the test is rat's hind paw heat-edema. Description: heat-induced paw edema in pentobarbital-anesthetized rat (58° C. water, 1 minute). The format is in vivo. The following applies: i.y. [sic]; 7/8-mers, ten minute interval between administration and 58° C. water for 1 minute; edema 30 minutes after heat; Table 3. As for the experimental part: The inventive peptides were dissolved either in saline or saline acidified with 0.1 M acetic acid and injected intravenously into a pentobarbital-anesthetized rat. The rat's hind paw was then immersed in 58°-60° C. water for 1 minute and the increase in paw weight, as an index of edema and swelling, was measured 30 minutes later. For some peptides, the ability of the substances to inhibit vascular leakage after muscle injury was also tested. Normally, the paw weight of saline-treated animals (controls) will increase by about 65-95% after heat injury. The increase in weight is relative to the contralateral non-heated paw.
In screening the bioactivity of new peptides, a dose of 5 mg/kg i.v. was initially used. In later studies, when greater activity was expected, a screening dose of 1 to 2 mg/kg i.v. was used.
Thus, each peptide was injected intravenously (at the amounts specified, usually 1 or 5 mg/kg, or by full dose-response analysis) 10 minutes (for 7/8-mers) or one hour (for 11-mers) before immersion of the right paw in 58° C. water, for 1 minute, and weights of both paws were obtained 30minutes later. To obtain statistical accuracy, four to six animals were used in each group. The % wt increase was calculated as (wt of heated paw--wt of unheated paw/wt of unheated paw)×100 and converted to % of the saline control group values, which were run concurrently.

For `CC[C@H](C)[C@H](NC(=O)[C@@H](CC(C)C)NC(=O)[C@H](CC(C)C)NC(=O)[C@H](CC(C)C)NC(=O)[C@H](CCCCN)NC(=O)[C@@H](N)CCCNC(=N)N)C(=O)N[C@H](CC(C)C)C(N)=O` [Composition 23] (HELM PEPTIDE1{R.K.L.L.[dL].I.[dL].[am]}$$$$V2.0), the “ED50 (95% confidence limits)” value is recorded as 1.3 (0.50-3.6) mg/kg.
